Reference: US7943382B2, “Method for inspecting fat-soluble vitamin and/or fat-soluble food factor by saliva analysis” (Mitsubishi Chemical Medience Corporation, priority 2004, dated 2011)

Legend:
[1] = CoQ10 level in parotid saliva of non-CoQ10 supplement-ingesting volunteers; assay type: in vivo, human; settings: 55 non-CoQ10 supplement-ingesting volunteers; 2SD 13.5 ng/ml
Excerpt: Therefore, a standard that can assess an individually suitable intake is required. It can be easily understood from FIG. 7 that the mean level and SD (standard deviation) of CoQ10 in parotid saliva of non-CoQ10 supplement-ingesting volunteers is useful as an example of the standard. A case that a volunteer, who is taking the CoQ10 supplement at an adequate time after meals, ingests it to increase the blood level up to a limit of the CoQ10 level of a non-ingesting volunteer, will be taken as an example for explanation. If a CoQ10 level in parotid saliva is far over the mean value +2SD, the intake is reduced, and if it is between the mean value −2SD and the mean value +2SD, the intake is increased, and the CoQ10 level is repeated inspected in saliva collected again at later dates, allowing the object to be achieved. In addition, the mean level and 2SD in FIG. 7 are obtained from the CoQ10 levels in parotid saliva of the 55 non-CoQ10 supplement-ingesting volunteers, the mean level is 17.0 ng/ml and the 2SD is 13.5 ng/ml.

[2] = Transition of the CoQ10 level in parotid saliva depending on ingestion states of Supplement N; assay type: in vivo, human
Method: For the ingestion test of CoQ10, commercial supplement S containing CoQ10 of 50 mg per one tablet and commercial supplement N containing 30 mg per one tablet were used. 10 volunteers in the group S and 10 volunteers in the group N were made to ingest orally the supplement s and the supplement N respectively. For ingestion of supplement S, each volunteer was made to ingest orally two tablets at 9:00 every morning continuously for a week, and for the next week, made to ingest orally double amount, four tablets at 9:00 every morning continuously, and then stopped from ingestion for two weeks. For ingestion of supplement N, each volunteer was made to ingest orally three tablets at 9:00 every morning continuously for a week, and for the next week, made to ingest orally double amount, six tablets at 9:00 every morning continuously, and then stopped from ingestion for two weeks. As specimens in both the groups S and N, parotid saliva and heparinized plasma were collected from PM 4:00 to 5:00, total four times, that is, before and one week after ingestion, at double dose ingestion, and two weeks after discontinuation of ingestion. The volunteer had the mouth rinsed with water prior to collection, kept quiet on a chair for 5 minutes, while the volunteer accumulated saliva in the oral cavity and discharged to initialize the oral cavity, followed by collecting parotid saliva. For collection of parotid saliva, the Saliva-sampler is inserted between the teeth and the cheek near the open of the parotid gland, the volunteer sat quiet on a chair, during which saliva was collected, while the volunteer swallowed saliva, which was secreted from the sublingual gland and the submandibular gland and accumulated in the mandible, to prevent contamination with the saliva from the sublingual gland and the submandibular gland. For analysis of CoQ10 in saliva collected from the parotid gland, the Saliva-sampler with absorbed saliva was transferred to the peculiar tube holding 1 ml of 50% ethanol, to which […] of ethanol was added to have a final concentration of […]. […]

[3] = Extraction of CoQ10 from saliva and absorbent depending on deproteinization solvent; assay type: physicochemical
Method: In the method of preparing the specimens in examples 1 and 2, the solvents were weighed using ethanol (90, 75, 50%), isopropanol (90, 75, 50%) or methanol (90, 75, 50%). Saliva of 600 μl, and 600, 1800 and 5400 μl of the solvent respectively were added to 50 mg of an absorbent to have a final concentrations of 50, 75 and 90% (V/V) respectively. The resultant solution was mixed, stirred, and centrifuged at 4° C. by 1000 G to get a supernatant, 20 μl of which was used to analyze CoQ10 by HPLC. As a result, the values shown in the following Table 2 “The CoQ10 concentrations in the supernatant obtained by deproteinizing saliva in three solvents and at three concentration levels (ng/ml)” were obtained. Ethanol, which was not affected by adsorption to proteins even at a concentration of 75% and could efficiently extract, was confirmed to be most suitable.

Q: For `COC1=C(OC)C(=O)C(C/C=C(\C)CC/C=C(\C)CC/C=C(\C)CC/C=C(\C)CC/C=C(\C)CC/C=C(\C)CC/C=C(\C)CC/C=C(\C)CC/C=C(\C)CCC=C(C)C)=C(C)C1=O` [CoQ10, Ubidecarenone], which “mean CoQ10 level in parotid saliva” value [1] is on record?
A: The value was 17.0 ng/mL.

Q: What about the “transition of the CoQ10 level in parotid saliva” value (“transition of the CoQ10 level” for short) ([2]; 3 tablets/day one week, 6 tablets/day next week, then two weeks discontinuation, other 7 volunteers, FIG. 7) of the same molecule?
A: Its value is “increased by ingestion of the supplement with CoQ10, furthermore increased by more ingestion, and decreased after discontinuation of ingestion”.

Q: What about the “transition of the CoQ10 level” value ([2]; volunteer N9, ingestion approximately three hours after breakfast) of the same molecule?
A: Its value is “small increase”.

Q: What about the “transition of the CoQ10 level” value ([2]; volunteers N1 and N5 (no or often lacking breakfast), increased amount of the supplement) of the same molecule?
A: The value was “hardly increased”.

Q: What about the “Collection amount of CoQ10 by the solvents” value (from here on “Collection amount of CoQ10”) ([3]; ethanol 50 V/V %) of the same molecule?
A: The value was 3 ng/mL.

Q: And the “Collection amount of CoQ10” value ([3]; ethanol 75 V/V %)?
A: Its value is 86 ng/mL.

Q: What about the “Collection amount of CoQ10” value ([3]; ethanol 90 V/V %) of the same molecule?
A: The value was 98 ng/mL.

Q: And the “Collection amount of CoQ10” value ([3]; isopropanol 50 V/V %)?
A: Its value is 23 ng/mL.

Q: And the “Collection amount of CoQ10” value ([3]; isopropanol 75 V/V %)?
A: The value was 19 ng/mL.

Q: What about the “Collection amount of CoQ10” value ([3]; isopropanol 90 V/V %) of the same molecule?
A: The value was 56 ng/mL.

Q: And the “Collection amount of CoQ10” value ([3]; methanol 50 V/V %)?
A: The value was 2 ng/mL.

Q: What about the “Collection amount of CoQ10” value ([3]; methanol 75 V/V %) of the same molecule?
A: Its value is 2 ng/mL.

Q: What about the “Collection amount of CoQ10” value ([3]; methanol 90 V/V %) of the same molecule?
A: Its value is 61 ng/mL.
